We go through three compounds from patent US20220411397A1, “ANALOGUES OF N-ACYL-HOMOSERINE LACTONES AND PHARMACEUTICAL COMPOSITION COMPRISING SAME” (SORBONNE UNIVERSITE, priority 2019, published 2022).

As usually defined, the EC50 is the concentration giving half of the maximal effect.

For one data set, the target named is T1, LasR receptor (Pseudomonas aeruginosa, UniProt P25084).
T1 construct: expressed in transfected cells; host or cells: Escherichia coli carrying plasmid pSB1075
The data set is described as follows: Activation of the LasR receptor on bacterial reporter strain E. coli pSB1075 (bioluminescence). It is filed as cell-based. An excerpt: 1.1.3. The Bacterial Reporter Strain E. coli pSB1075 • A bacterial reporter strain of the Quorum Sensing was used to study the ability of the molecules to be recognized by the Pseudomonas aeruginosa AHL receptor (LasR) and induce an activation. […] This bioluminescent strain was modified by addition of a plasmid pSB1075. This plasmid contains genes encoding both tetracycline resistance and the expression of the LasR AHL receptor from the Pseudomonas aeruginosa bacteria, as well as a fusion gene derived from the LasR promoter and the luxCDABE gene from Photorhabdus luminescence. The bacterial strain was grown in the LB medium supplemented with 5 μg/ml tetracycline to exert a selection pressure and ensure that only the desired strain was amplified. The fusion gene included in the plasmid gives the bacteria the ability to emit a bioluminescence when the LasR receptor is activated, and provides the user with a robust test for the molecular screening. […] On day 1, the culture was diluted 1:100 (P1) in 10 ml of LB medium supplemented with 5 μg/ml tetracycline and maintained for 24 hours at 37° C. under stirring at 70 rpm. On day 2, the experiment took place: a bacterial suspension extemporaneously diluted 1:10 in LB medium supplemented with 5 μg/ml tetracycline (P2) was dispensed into a black opaque 96-well plate and incubated for 4 hours with a range of AHL concentrations or controls until the resulting luminescence was read at the end point. All experiments were performed in triplicates.
1.3. […] This bioluminescent strain was developed by the addition of a plasmid pSB1075 containing genes encoding the tetracycline resistance and the expression of the LasR AHL receptor, as well as a fusion gene of the LasR promoter and the luxCDABE gene of Photorhabdus luminescence. • On day 1, a 1/100 dilution of the bacterial strain (P1) was grown for 24 hours at 37° C. under stirring (70 rpm) in a LB medium containing 5 μg/ml tetracycline (pressure selective). On day 2, P1 was diluted 1:10 in the same medium to obtain P2. In a black 96-well plate were placed 200 μL of P2 and 10 μL of the short chain compound (medium, water and DMSO for the negative controls, C4-HSL as positive control, and the test sample at the desired concentration). The plate was incubated for 4 hours at 37° C. under stirring at 70 rpm. […] After that, the incubation was continued according to the conventional protocol, with the test compound at the desired concentrations.

The next data set deals with Caco-2/TC7 cells. The data set is described as follows: Stimulation of Caco-2/TC7 cells by IL-1β, IL-8 secretion (ELISA). In kind it is cell-based, human. From the text: 1.1.1. The Caco-2/TC7 Cell Line • The Caco-2 cell line is derived from a human colon adenocarcinoma and represents a cell culture model of enterocytes lining the epithelium of the small intestinal. […] During the exponential growth phase (from seeding to confluence), the cells remain undifferentiated. At confluence, they can spontaneously (in the absence of differentiation inducers) differentiate and progressively polarize. The differentiation process, which is a growth-related mechanism, is maximal at the end of confluence (stationary phase of the growth curve). • The cells develop a brush border at the apical pole containing microvilli and with characteristic enterocytic enzymes, such as hydrolases. • In accordance with the published literature, the Caco-2/TC7 cells in our experiments were seeded at 10^5 cells/well (equivalent to 10-12×10^3 cells/cm^2) in 6-well plastic culture plates. The cells were maintained in a glucose-rich medium (high glucose in the DMEM GlutaMAX medium 4.5 g/I glucose) supplemented with 20% heat-inactivated foetal calf serum, 1% nonessential amino acids NEAA, and 1% penicillin streptomycin. The cells were grown at 37° C. in a 10% CO2/air atmosphere. The medium was changed every day. Under these conditions, the cells were confluent on day 6. On day 17, the cells were serum-starved, and were used on day 18.
1.2.1. Stimulation of Caco-2/TC7 with Cytokines • The Caco-2/TC7 cells were seeded in 6-well plates at 100,000 cells/well and grown for 18 days. On day 17, the cells were serum-starved, which means that the cell medium was replaced with a foetal calf serum-free medium, and used on day 18. • The stimulation medium was composed of a medium referred to as “starvation medium”, i.e. without foetal calf serum (DMEM GlutaMAX, 1% NEAA, 1% penicillin-streptomycin) with 100 μM of 2-HQ. The cells were incubated for 18 h at 37° C. with 2 ml of stimulation medium containing 0.1% DMSO (negative control) or stimulation medium containing the compounds tested at desired concentrations, with or without proinflammatory cytokines to induce an inflammation. To induce the inflammation, either the IL-1β at 25 ng/ml or the combination of TNF-α and IFN-γ at 50 ng/ml each were used. After 18 h, the supernatants were collected and stored at −80° C. before analysis by ELISA test. The cells were washed with 1 ml of PBS 1×/well, and lysed in 100 μl of PBS 1× containing 1% Triton X-100. The cells were harvested by scraping and stored at −80° C. before the quantification of the protein. The dosing of the LDH was performed immediately before freezing. • All the experiments on the cells were performed in triplicates.
1.2.4. Quantification of the Human Cytokines by ELISA • The levels of the proinflammatory cytokine IL-8 produced by the cells were determined in the cell supernatants and/or cell lysates using the commercially available IL-8 ELISA detection kit (Duoset Human C×CL8/IL-8, ref. DY208) provided by R & D Systems (Minneapolis, Minn., USA) according to the instructions of the manufacturer. • All the cytokine levels were first normalized to the protein content determined in the corresponding cell lysates. Then, to compare the experiments, they could be further normalized using the activated control condition (DMSO+cytokines) as the 100% response.
For orientation: ELISA stands for enzyme-linked immunosorbent assay.

T1 sequence (P25084 whole entry): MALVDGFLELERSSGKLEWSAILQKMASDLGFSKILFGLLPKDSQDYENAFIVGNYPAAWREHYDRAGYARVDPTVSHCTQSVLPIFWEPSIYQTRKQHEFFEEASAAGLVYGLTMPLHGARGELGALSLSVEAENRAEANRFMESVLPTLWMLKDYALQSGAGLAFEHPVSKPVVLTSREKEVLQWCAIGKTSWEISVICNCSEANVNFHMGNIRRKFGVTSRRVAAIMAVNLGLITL

At LasR receptor, `CCCCCCCCCC(=O)CC(=O)N[C@H]1CCCC[C@@H]1O` [I-2, N-[(1S,2S)-2-hydroxycyclohexyl]-3-oxo-dodecanamide] registered an EC50 of 0.165 µM. In the data set with Caco-2/TC7 cells (1-50 μM range), the “activity on IL-1β-stimulated Caco-2/TC7 cells compared with natural 3-oxo-C12 HSL” value (“activity … compared with natural 3-oxo-C12 HSL” for short) is “an activity equivalent to that of the natural 3-oxo-C12 HSL”.

`CCCCCCCCCC(=O)CC(=O)N[C@H]1CCCC[C@H]1O` [I-4, N-[(1S,2R)-2-hydroxycyclohexyl]-3-oxo-dodecanamide]: at LasR receptor, the EC50 was 200 µM. Besides, in the data set on Caco-2/TC7 cells (1-50 μM range), the “activity … compared with natural 3-oxo-C12 HSL” value is “an activity equivalent to that of the natural 3-oxo-C12 HSL”.

`CCCCCCCCCC(=O)CC(=O)Nc1cc(Cl)ccc1O` [I-6, N-(5-chloro-2-hydroxyphenyl)-3-oxododecanamide]: on LasR receptor, the EC50 was > 1000 µM. In the data set with Caco-2/TC7 cells (10-100 μM range), the “activity … compared with natural 3-oxo-C12 HSL” value is “a significantly higher activity than that of the natural 3-oxo-C12 HSL”.
